In patent publication US6794376B2, “Methods and compositions for enhancing diffusion of therapeutic agents through tissue” (William Beaumont Hospital, priority 2000, dated 2004):

Key:
[1] = test system: Du-145 tumors grafted onto mice; assay: Adenovirus vector diffusion (X-gal staining) in Du-145 xenograft tumors injected with permeabilizer, with or without hyperthermia; type: in vivo; conditions: single injection of 30 microliters, tumor retrieved at 72 hours
Procedure: Du-145 tumors grafted onto mice were injected with cyclopentadecanolide and adenovirus vector that contained the beta-galactosidase transgene, all in PBS. The tumor was retrieved 72 hours after treatment, cryosectioned, and stained with X-gal to visualize beta-galactosidase expression.
In this example, tumors were heated to 41.0° C. using an unfocused ultrasonic transducer prior to treatment with permeabilizer and virus vector. When hyperthermia was established, the tumor was given a single injection of 30 microliters containing 6% cyclopertadecanolide and 2×10^10 adenovirus vectors that contained the beta-galactosidase transgene, all in PBS. Following the injection, the hyperthermia was continued for an additional 45 minutes. That is, the elevated temperature was maintained for 45 minutes after injection. The tumor was retrieved 72 hours following the injection, cryosectioned, and stained with X-gal to visualize beta-galactosidase expression.
The voids were filled with light amber colored, gelatinous material, indicating break-down of the tissue cell membranes.

[2] = Highest permeabilizer concentration that gives a stable emulsion; type: physicochemical
Procedure: As indicated above, prior to delivery to the tissue of interest, a working emulsion of the permeabilizer is prepared, preferably from one of the stocks. The working emulsion preferably comprises one or more permeabilizers in a buffer. The concentration of the permeabilizer will depend on the permeabilizer used in the procedure being conducted. Because ethylene brassylate and civetone are liquids, they can be administered to a tissue at concentrations up to 100%. Preferably, the working emulsion contains ethylene brassylate, civetone, or a combination of both at a concentration of between approximately 0.1 and 20% (volume/volume). As indicated above, Cyclopentadecanone and cyclopentadecanolide, however, are solids. The highest concentration of cyclopentadecanone or cyclopentadecanolide that can be made into a stable emulsion is approximately 25% (weight/volume). As a result, the working emulsion preferably contains cyclopentadecanone or cyclopentadecanolide at a concentration of between approximately 0.1 and 25%. Particularly preferred is a working solution that contains cyclopentadecanone, cyclopentadecanolide, or a combination of both, at a concentration of between approximately 0.1 and 7%.

[3] = test system: spheroids made from DU-145 human prostate carcinoma cells; assay: Adenovirus vector (beta-galactosidase reporter) penetration into DU-145 spheroids treated with permeabilizer, with or without hyperthermia; type: cell-based
Procedure: The spheroids made from DU-145 human prostate carcinoma cells were grown to an average diameter of 500 micrometers and then suspended in culture medium containing 0.1% to 3% cyclopentadecanolide plus adenovirus vectors that had beta-galactosidase as a reporter transgene. Once a viral vector entered a cell, beta-galactosidase was expressed constitutively under control of the human CMV promoter. The experimental protocol called for the spheroids to be incubated for 48 to 72 hours following treatment to permit transgene expression. It should be noted that a reporter gene was utilized in this Example, as well as in Examples 4 and 5, only to facilitate determination of the extent of vector diffusion. Any other polynucleotide could be used in this system, including suicide genes and genes encoding therapeutic proteins.
Within 6 to 24 hours following permeabilizer treatment, depending upon the permeabilizer concentration used, the cells within the spheroid regions where the intercellular space was increased became detached from the spheroid.

[4] = test system: Spheroids made from MCF-7 human breast carcinoma cells; assay: Doxorubicin penetration and morphology in MCF-7 spheroids treated with permeabilizer, with or without hyperthermia; type: cell-based
Procedure: Spheroids made from MCF-7 human breast carcinoma cells were treated with 3.0 micrograms per milliliter doxorubicin for six hours at various temperatures and under various permeabilizer conditions. Doxorubicin is an anti-neoplastic drug frequently used in chemotherapy procedures. When the spheroids were treated for six hours at 37.0° C. in the absence of permeabilizer, the drug penetrated only six cell layers into the spheroids. […] The spheroids in this experiment also underwent a characteristic change in morphology. […] These changes in spheroid morphology and drug penetration were never observed in control spheroids that received no permeabilizer treatment. Furthermore, these changes were never observed in spheroids that received sham treatment, which included exposure to all components used in the permeabilizer emulsion except the permeabilizer.
In this example, spheroids were treated as in example 1 with the addition of hyperthermia as an additional variable in the experiment. Hyperthermia in this example involved raising the temperature of the spheroids to approximately 40° C. […] Hyperthermia treatment alone had no effect on penetration of doxorubicin or upon the intercellular space.

[5] = 6% permeabilizer and 2×10^10 adenovirus vectors, hyperthermia 41.0° C. kept for 45 minutes after injection

SMILES: O=C1CCCCCCCCCCCCCCO1 [cyclopentadecanolide]
- X-gal staining from beta-galactosidase expression in tumor sections [1, 5]: pervaded the remainder of the sections
- tumor section morphology (tissue destruction) [1, 5]: large voids in the center of the sections
- X-gal staining from beta-galactosidase expression in tumor sections ([1]; 12% cyclopentadecanolide and 2×10^10 adenovirus vectors, no hyperthermia): pervasive throughout the section
- highest concentration that can be made into a stable emulsion [2]: approximately 25 % (weight/volume)
- transgene expression in cells that detached from the spheroids ([3]; 0.1% to 3% cyclopentadecanolide plus adenovirus vectors with beta-galactosidase reporter transgene): exhibit beta-galactosidase activity
- cell detachment from the spheroid when hyperthermia was included ([3]; 0.1% to 3% cyclopentadecanolide plus hyperthermia): grossly exacerbated

SMILES: O=C1CCCCCCCCCCCCCC1 [cyclopentadecanone]
- highest concentration that can be made into a stable emulsion [2]: approximately 25 % (weight/volume)
- spheroid morphology / intercellular space ([4]; 0.6% cyclopentadecanone, 37.0° C., six hours): increase in intercellular space
- degree to which doxorubicin penetrated the spheroids ([4]; 3.0 micrograms per milliliter doxorubicin, six hours, culture medium containing 0.6% cyclopentadecanone, 37.0° C.): essentially tripled
- permeabilizer activity with concurrent hyperthermia ([4]; as example 1 plus hyperthermia, approximately 40° C.): marked potentiation of permeabilizer activity
- doxorubicin penetration with permeabilizer and hyperthermia ([4]; as example 1 plus hyperthermia, approximately 40° C., doxorubicin fluorescence): penetrated all recesses of the spheroids
- intercellular space with concurrent hyperthermia ([4]; as example 1 plus hyperthermia, approximately 40° C., intact and sectioned spheroids): greater increase in intercellular space

SMILES: COc1cccc2c1C(=O)c1c(O)c3c(c(O)c1C2=O)C[C@@](O)(C(=O)CO)C[C@@H]3O[C@H]1C[C@H](N)[C@H](O)[C@H](C)O1 [doxorubicin, reference compound]
- depth of doxorubicin penetration into the spheroids ([4]; 3.0 micrograms per milliliter doxorubicin, six hours, 37.0° C., absence of permeabilizer): six
- effect of hyperthermia treatment alone on penetration of doxorubicin ([4]; hyperthermia approximately 40° C., no permeabilizer): no effect
